Test results: ChEMBL document CHEMBL1152897, “Synthesis and SAR study of novel pseudo-steroids as potent and selective progesterone receptor antagonists” (Bioorg Med Chem Lett, 2009)

Columns and labels:
Progesterone receptor = molecular target: T1, Progesterone receptor (Homo sapiens, UniProt P06401); assay: Antagonist activity at progesterone receptor in human T47D cells assessed as inhibition of progesterone-induced alkaline phosphatase activity; format: functional, cell-based
T1 sequence (P06401 whole entry): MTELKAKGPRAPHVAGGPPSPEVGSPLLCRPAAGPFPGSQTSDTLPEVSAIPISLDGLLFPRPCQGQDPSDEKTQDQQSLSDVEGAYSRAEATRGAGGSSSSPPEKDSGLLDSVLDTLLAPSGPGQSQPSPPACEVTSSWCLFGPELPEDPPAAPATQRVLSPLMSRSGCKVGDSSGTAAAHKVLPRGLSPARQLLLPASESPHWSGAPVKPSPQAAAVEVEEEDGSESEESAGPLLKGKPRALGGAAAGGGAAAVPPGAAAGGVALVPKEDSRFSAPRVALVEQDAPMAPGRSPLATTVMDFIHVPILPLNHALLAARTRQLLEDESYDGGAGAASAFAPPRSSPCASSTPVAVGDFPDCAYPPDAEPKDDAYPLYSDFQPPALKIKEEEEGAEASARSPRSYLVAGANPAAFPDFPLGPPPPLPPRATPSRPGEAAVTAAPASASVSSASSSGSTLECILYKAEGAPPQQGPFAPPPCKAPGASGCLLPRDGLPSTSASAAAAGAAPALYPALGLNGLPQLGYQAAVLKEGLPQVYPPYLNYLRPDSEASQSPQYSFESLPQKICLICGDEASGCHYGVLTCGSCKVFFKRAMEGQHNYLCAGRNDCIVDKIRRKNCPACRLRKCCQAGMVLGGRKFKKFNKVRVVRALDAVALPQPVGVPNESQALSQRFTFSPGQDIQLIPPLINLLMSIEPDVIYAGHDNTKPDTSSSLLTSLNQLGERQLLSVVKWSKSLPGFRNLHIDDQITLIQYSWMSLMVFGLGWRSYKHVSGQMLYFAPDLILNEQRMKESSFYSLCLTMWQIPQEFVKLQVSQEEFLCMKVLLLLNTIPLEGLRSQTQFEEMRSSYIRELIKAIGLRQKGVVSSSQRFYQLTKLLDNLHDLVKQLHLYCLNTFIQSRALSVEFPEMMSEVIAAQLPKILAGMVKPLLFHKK

Glucocorticoid receptor = molecular target: T2, Glucocorticoid receptor (Homo sapiens, UniProt P04150); assay: Antagonist activity at glucocorticoid receptor in human A549 cells assessed as inhibition of corticoid-induced transcription after 16 hrs by glucocorticoid response element-driven luciferase reporter gene assay; format: functional, cell-based
T2 sequence (P04150 whole entry): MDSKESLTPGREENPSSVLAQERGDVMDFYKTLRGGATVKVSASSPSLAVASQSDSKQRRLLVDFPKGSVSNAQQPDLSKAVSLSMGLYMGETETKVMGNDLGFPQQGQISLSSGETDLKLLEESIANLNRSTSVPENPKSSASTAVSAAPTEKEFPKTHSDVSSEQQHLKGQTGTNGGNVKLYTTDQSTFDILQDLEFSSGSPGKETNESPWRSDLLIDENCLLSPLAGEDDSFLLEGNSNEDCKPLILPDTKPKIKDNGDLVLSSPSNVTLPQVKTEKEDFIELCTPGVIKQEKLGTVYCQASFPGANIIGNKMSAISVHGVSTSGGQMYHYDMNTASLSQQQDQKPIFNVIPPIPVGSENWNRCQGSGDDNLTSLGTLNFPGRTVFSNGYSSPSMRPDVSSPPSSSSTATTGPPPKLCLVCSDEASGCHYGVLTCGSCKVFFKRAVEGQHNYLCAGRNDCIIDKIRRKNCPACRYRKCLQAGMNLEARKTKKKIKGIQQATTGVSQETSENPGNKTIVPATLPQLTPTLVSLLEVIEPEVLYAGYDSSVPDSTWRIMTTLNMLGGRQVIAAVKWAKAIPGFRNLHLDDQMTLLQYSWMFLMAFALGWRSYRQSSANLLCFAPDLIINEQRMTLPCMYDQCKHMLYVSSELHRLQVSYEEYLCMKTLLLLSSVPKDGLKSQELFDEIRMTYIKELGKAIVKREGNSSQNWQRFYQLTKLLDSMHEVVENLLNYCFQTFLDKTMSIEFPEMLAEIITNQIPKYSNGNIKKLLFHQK

Rattus norvegicus = assay: Blockade of progesterone-dependent inhibition of ethinyl estradiol-induced complement C3 expression in po dosed ovariectomized Sprague-Dawley rat uterus; format: functional, organism-based

SMILES	IC50 (Progesterone receptor) [nM]	IC50 (Glucocorticoid receptor) [nM]	IC50 (Rattus norvegicus) [mg/kg]
C=C1CCO[C@]12CC[C@H]1[C@@H]3CCC4=CC(=O)CCC4=C3[C@@H](c3ccc(N(C)C)cc3)OC[C@@]12C	1	62	–
CN(C)c1ccc([C@H]2OC[C@]3(C)[C@@H](O)CC[C@H]3[C@@H]3CCC4=CC(=O)CCC4=C32)cc1	930	1400	–
COc1ccc([C@H]2OC[C@@]3(C)[C@@H](CC[C@@]3(O)C#Cc3ccc(C(F)(F)F)cc3)[C@@H]3CCC4=CC(=O)CCC4=C32)cc1	82	26	–
CN(C)c1ccc([C@H]2OC[C@@]3(C)[C@@H](CC[C@@]3(O)C(F)(F)C(F)(F)F)[C@@H]3CCC4=CC(=O)CCC4=C32)cc1	36	20	–
CC#C[C@]1(O)CC[C@H]2[C@@H]3CCC4=CC(=O)CCC4=C3[C@@H](c3ccc(N(C)C)cc3)C[C@@]21C [MIFEPRISTONE]	–	–	4.6
CSc1ccc([C@H]2OC[C@@]3(C)[C@@H](CC[C@@]3(O)C(F)(F)C(F)(F)F)[C@@H]3CCC4=CC(=O)CCC4=C32)cc1	56	7	–
CN(C)c1ccc([C@H]2OC[C@@]3(C)[C@@H](CC[C@@]3(O)C#Cc3ccccc3)[C@@H]3CCC4=CC(=O)CCC4=C32)cc1	60	102	–
C#C[C@]1(O)CC[C@H]2[C@@H]3CCC4=CC(=O)CCC4=C3[C@@H](c3ccc(OC)cc3)OC[C@@]21C	> 1000	110	–
COc1ccc([C@H]2OC[C@@]3(C)[C@@H](CC[C@@]3(O)C#Cc3ccccc3)[C@@H]3CCC4=CC(=O)CCC4=C32)cc1	280	21	–
CC#C[C@]1(O)CC[C@H]2[C@@H]3CCC4=CC(=O)CCC4=C3[C@@H](c3ccc(OC)cc3)OC[C@@]21C	> 1000	41	–
C=C1CCO[C@]12CC[C@H]1[C@@H]3CCC4=CC(=O)CCC4=C3[C@@H](c3ccc(OC)cc3)OC[C@@]12C	7	132	–

Results, then the compound that gave them:

IC50 (Progesterone receptor) [nM]	IC50 (Glucocorticoid receptor) [nM]	IC50 (Rattus norvegicus) [mg/kg]	SMILES
34	17	16	CC#C[C@]1(O)CC[C@H]2[C@@H]3CCC4=CC(=O)CCC4=C3[C@@H](c3ccc(N(C)C)cc3)OC[C@@]21C
33	68	–	C#C[C@]1(O)CC[C@H]2[C@@H]3CCC4=CC(=O)CCC4=C3[C@@H](c3ccc(N(C)C)cc3)OC[C@@]21C
3.3	58	–	C=C(C)[C@]1(O)CC[C@H]2[C@@H]3CCC4=CC(=O)CCC4=C3[C@@H](c3ccc(SC)cc3)OC[C@@]21C
0.3	150	–	C=C(C)[C@]1(O)CC[C@H]2[C@@H]3CCC4=CC(=O)CCC4=C3[C@@H](c3ccc(N(C)C)cc3)OC[C@@]21C
> 1000	> 3000	–	C=C(C)[C@]1(O)CC[C@H]2[C@@H]3CCC4=CC(=O)CCC4=C3[C@@H](c3ccc(S(C)(=O)=O)cc3)OC[C@@]21C
